The values that follow come from patent US9963462B2 (priority 2015, dated 2018).

The subject of assay [1] is BH4 levels in SK-N-BE (2) cells. In words: SKN-N-BE (2) cellular assay, BH4 levels by LC-MS. The assay is classed as cell-based. To be noted: Homo sapiens, SKNBE2, read-out: SK-N-BE(2) IC50, SK-N-BE (2) cells, BH4 levels by LC-MS.
Assay [2] addresses SNAP-hSPR (sepiapterin reductase, SPR) (Homo sapiens, UniProt P35270). In words: biochemical. The assay is classed as binding. To be noted: terbium labelled SNAP-hSPR / SSZ labelled SNAP-EGFP; read-out: hTR-FRET IC50.

Chain of SNAP-hSPR (sepiapterin reductase, SPR) (P35270 whole entry): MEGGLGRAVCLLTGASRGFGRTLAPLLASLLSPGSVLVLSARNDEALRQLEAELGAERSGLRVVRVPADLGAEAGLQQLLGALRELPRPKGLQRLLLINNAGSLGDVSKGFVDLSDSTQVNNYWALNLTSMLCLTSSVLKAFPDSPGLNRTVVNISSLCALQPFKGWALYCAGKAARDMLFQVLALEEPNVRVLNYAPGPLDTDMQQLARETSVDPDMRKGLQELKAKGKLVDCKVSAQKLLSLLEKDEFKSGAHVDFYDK

The term IC50 denotes the concentration needed to halve the response being measured. In the case of `Cc1cc(=O)[nH]c(-n2ncc(C(=O)NC3CCCC3)c2Cc2ccccc2)n1` [Q-0370], the IC50 in assay [1] worked out at 22 µM; in assay [2], 0.1 µM.

Regarding `Cc1cc(=O)[nH]c(-n2ncc(C(=O)N3CCC(C)(C)C3)c2CC(C)C)n1` [Q-0371], the IC50 in assay [1] was found to be 14 µM; in assay [2], 0.07 µM.

On to `Cc1cc(=O)[nH]c(-n2ncc(C(=O)N(C)C3CCCc4ccccc43)c2C)n1` (stereo not shown) [Q-0373], for which the IC50 came to 1.5 µM in assay [1] and 0.02 µM in assay [2].

On to `Cc1cc(=O)[nH]c(-n2ncc(C(=O)N(C)C3CCc4ccccc43)c2C)n1` (stereo not shown) [Q-0374], for which the IC50 is 1.2 µM in assay [1] and 0.009 µM in assay [2].

For `Cc1cc(=O)[nH]c(-n2nc(C)c(C(=O)N3CCc4ccccc4C3)c2C)n1` [Q-0375], the IC50 in assay [1] worked out at 2.5 µM; in assay [2], 0.02 µM.

`Cc1cc(=O)[nH]c(-n2ccc(C(=O)N3CCc4ccccc43)n2)n1` [Q-0376]: the IC50 stood at 8.2 µM in assay [1] and 0.03 µM in assay [2].

On to `Cc1cc(=O)[nH]c(-n2ccc(C(=O)N3c4ccccc4CC3C)n2)n1` (stereo not shown) [Q-0377], for which the IC50 in assay [1] is 6.3 µM; in assay [2] it was 0.04 µM.

Regarding `Cc1c(C(=O)N2CCC(C)(C)C2)cnn1-c1nc2ccsc2c(=O)[nH]1` [Q-0380], the IC50 in assay [1] turned out to be 2.7 µM; in assay [2] it was 0.007 µM.

`Cc1nc(-n2ncc(C(=O)N3CCc4ccccc4C3)c2C)[nH]c(=O)c1C` [Q-0381]: the IC50 in assay [1] is 2.1 µM; in assay [2], 0.01 µM.

Consider `Cc1c(C(=O)N2CCc3ccccc3C2)cnn1-c1nc2sccc2c(=O)[nH]1` [Q-0382], for which the IC50 in assay [1] was 0.1 µM; in assay [2] it was 0.003 µM.

Turning to `Cc1c(C(=O)N2CCc3ccccc3C2)cnn1-c1nc(C(C)(C)C)cc(=O)[nH]1` [Q-0383], the figures for the IC50 in assay [1] and in assay [2] were 69 µM and 0.3 µM, respectively.

On to `Cc1cc(=O)[nH]c(-n2ncc(C(=O)NCC3(c4ccccc4)CCCC3)c2C)n1` [Q-0385], for which the results for the IC50 in assay [1] and in assay [2] were 3.8 µM and 0.03 µM, respectively.

Consider `Cc1c(C(=O)N2CCc3ccccc3C2)cnn1-c1ncc(Cl)c(=O)[nH]1` [Q-0387], for which the IC50 in assay [1] came to 3.7 µM; in assay [2], 0.01 µM.

With `O=C(c1ccn(-c2nc3ccsc3c(=O)[nH]2)n1)N1CCc2ccccc2C1` [Q-0388], the figures for the IC50 in assay [1] and in assay [2] were 36 µM and 0.1 µM, respectively.

As for `CC1(C)CCN(C(=O)c2ccn(-c3nc4ccsc4c(=O)[nH]3)n2)C1` [Q-0389], the IC50 stood at 5.6 µM in assay [1] and 0.02 µM in assay [2].

On to `O=C(c1ccn(-c2nc3ccsc3c(=O)[nH]2)n1)N1CCC(C(F)(F)F)CC1` [Q-0390], for which the IC50 in assay [1] was found to be 12 µM; in assay [2], 0.02 µM.

Regarding `Cc1c(C(=O)N2CCc3ccccc3C2)cnn1-c1nc(C(F)(F)F)cc(=O)[nH]1` [Q-0393], the IC50 in assay [1] was determined as 0.8 µM; in assay [2], 0.006 µM.

With `Cc1c(C(=O)N2CCCc3ccccc32)cnn1-c1nc2ccsc2c(=O)[nH]1` [Q-0395], the values for the IC50 in assay [1] and in assay [2] were 0.5 µM and 0.02 µM, respectively.

For `Cc1c(C(=O)N2CCc3ccccc3C2)cnn1-c1nc2c(c(=O)[nH]1)CCC2` [Q-0396], the IC50 is 0.061 µM in assay [1] and 0.002 µM in assay [2].

On to `Cc1c(C(=O)N2CCCC2(C)C)cnn1-c1nc2ccsc2c(=O)[nH]1` [Q-0397], for which the IC50 in assay [1] is 2.3 µM; in assay [2] it was 0.02 µM.

As to `Cc1c(C(=O)N2CCC3(CCCC3)CC2)cnn1-c1nc2ccsc2c(=O)[nH]1` [Q-0398], the IC50 amounted to 0.072 µM in assay [1] and 0.01 µM in assay [2].

Regarding `Cc1c(C(=O)N2CCC(C(C)(C)C)CC2)cnn1-c1nc2ccsc2c(=O)[nH]1` [Q-0399], the IC50 in assay [1] worked out at 0.024 µM; in assay [2], 0.003 µM.

Take `Cc1c(C(=O)N2CCC(C)CC2C)cnn1-c1nc2ccsc2c(=O)[nH]1` (stereo not shown) [Q-0400]: the IC50 is 0.2 µM in assay [1] and 0.004 µM in assay [2].

For the compound `Cc1c(C(=O)N2c3ccccc3CC2C)cnn1-c1nc2ccsc2c(=O)[nH]1` (stereo not shown) [Q-0401], the IC50 in assay [1] was determined as 0.4 µM; in assay [2], 0.03 µM.

Take `Cc1c(C(=O)N2CC[C@H]3CCCC[C@H]3C2)cnn1-c1nc2ccsc2c(=O)[nH]1` [Q-0402]: the IC50 was 0.041 µM in assay [1] and 0.01 µM in assay [2].

In the case of `Cc1c(C(=O)N2CCC(C(F)(F)F)C2)cnn1-c1nc2ccsc2c(=O)[nH]1` (stereo not shown) [Q-0403], the IC50 turned out to be 1.1 µM in assay [1] and 0.009 µM in assay [2].

On to `Cc1nc(-n2ncc(C(=O)N3c4ccccc4CC3C)c2C)[nH]c(=O)c1C` (stereo not shown) [Q-0404], for which the figures for the IC50 in assay [1] and in assay [2] were 4.3 µM and 0.04 µM, respectively.

In the case of `Cc1c(C(=O)N2CC(C)(C)OC(C)(C)C2)cnn1-c1nc2ccsc2c(=O)[nH]1` [Q-0405], the IC50 in assay [1] turned out to be 1.5 µM; in assay [2], 0.01 µM.

On to `Cc1c(C(=O)N2CC(C(F)(F)F)CC(C(F)(F)F)C2)cnn1-c1nc2ccsc2c(=O)[nH]1` (stereo not shown) [Q-0406], for which the IC50 in assay [1] came out at 2 µM; in assay [2], 0.05 µM.

As for `Cc1c(C(=O)N2CC[C@H]3CCCC[C@@H]3C2)cnn1-c1nc2ccsc2c(=O)[nH]1` [Q-0408], the IC50 in assay [1] is 0.075 µM; in assay [2], 0.01 µM.

As to `Cc1cc2nc(-n3ncc(C(=O)N4CCC(C(F)(F)F)CC4)c3C)[nH]c(=O)c2s1` [Q-0409], the figures for the 50% inhibitory concentration (IC50) in assay [1] and in assay [2] were 25 µM and 0.2 µM, respectively.

Turning to `Cc1c(C(=O)N2CCC(C(F)(F)F)CC2)cnn1-c1nc2sccc2c(=O)[nH]1` [Q-0410], the IC50 in assay [1] was 0.2 µM; in assay [2], 0.002 µM.

`Cc1nn(-c2nc3ccsc3c(=O)[nH]2)c(C)c1C(=O)N1CCC(C)(C)C1` [Q-0411]: the values for the IC50 in assay [1] and in assay [2] were 2.7 µM and 0.009 µM, respectively.

As for `Cc1c(C(=O)N2CCCCC2(C)C)cnn1-c1nc2ccsc2c(=O)[nH]1` [Q-0412], the IC50 in assay [1] is 0.5 µM; in assay [2], 0.009 µM.

As for `Cc1c(C(=O)N2[C@H](C)CCC[C@@H]2C)cnn1-c1nc2ccsc2c(=O)[nH]1` [Q-0417], the IC50 in assay [1] turned out to be 0.9 µM; in assay [2], 0.004 µM.

As for `Cc1nn(-c2nc3ccsc3c(=O)[nH]2)c(C)c1C(=O)N1CCC(C(F)(F)F)CC1` [Q-0419], the values for the IC50 in assay [1] and in assay [2] were 0.7 µM and 0.005 µM, respectively.

As for `Cc1nc(-n2ncc(C(=O)N3CCC(C(F)(F)F)CC3)c2C)[nH]c(=O)c1Cl` [Q-0421], the figures for the IC50 in assay [1] and in assay [2] were 0.7 µM and 0.003 µM, respectively.

For the compound `Cc1c(C(=O)N2CCC(C(F)(F)F)CC2C)cnn1-c1nc2ccsc2c(=O)[nH]1` (stereo not shown) [Q-0422], the IC50 in assay [1] turned out to be 0.2 µM; in assay [2], 0.003 µM.

Take `Cc1c(C(=O)N2CCC(F)(F)CC2)cnn1-c1nc2c(c(=O)[nH]1)CCC2` [Q-0424]: the IC50 was 1.1 µM in assay [1] and 0.004 µM in assay [2].

Turning to `Cc1c(C(=O)N2CCC(C(F)(F)F)CC2)cnn1-c1nc2c(c(=O)[nH]1)CCCC2` [Q-0425], the results for the IC50 in assay [1] and in assay [2] were 2.1 µM and 0.03 µM, respectively.

Turning to `Cc1c(C(=O)N2CCC(C(F)(F)F)CC2)cnn1-c1nc2c(ccn2C)c(=O)[nH]1` [Q-0426], the values for the IC50 in assay [1] and in assay [2] were 16 µM and 0.1 µM, respectively.

As for `Cc1c(C(=O)N2CCC(c3ccccc3)CC2)cnn1-c1nc2c(c(=O)[nH]1)CCC2` [Q-0428], the values for the IC50 in assay [1] and in assay [2] were 0.019 µM and 0.003 µM, respectively.

In the case of `Cc1c(C(=O)N2CCC(C(F)(F)F)CC2)cnn1-c1nc2ccccc2c(=O)[nH]1` [Q-0429], the IC50 in assay [1] turned out to be 49 µM; in assay [2], 0.1 µM.

With `Cc1c(C(=O)N2CCC(C(F)(F)F)C2)cnn1-c1nc2c(c(=O)[nH]1)CCC2` (stereo not shown) [Q-0431], the IC50 in assay [1] stood at 0.5 µM; in assay [2] it was 0.003 µM.

Regarding `Cc1cc(=O)[nH]c(-n2cc(C(=O)N3CCC(C(F)(F)F)CC3)c(C)n2)n1` [Q-0432, 6-methyl-2-{3-methyl-4-[4-(trifluoromethyl)piperidine-1-carbonyl]-1H-pyrazol-1-yl}-3,4-dihydropyrimidin-4-one], the IC50 in assay [1] amounted to 6.5 µM; in assay [2] it was 0.04 µM.

Turning to `Cc1c(C(=O)N(CCC(F)(F)F)CC(F)(F)F)cnn1-c1nc2c(c(=O)[nH]1)CCC2` [Q-0435], the figures for the IC50 in assay [1] and in assay [2] were 1.2 µM and 0.02 µM, respectively.

As for `Cc1c(C(=O)N2CCC(C(F)(F)F)CC2)cnn1-c1nc2[nH]ncc2c(=O)[nH]1` [Q-0438], the values for the IC50 in assay [1] and in assay [2] were 35 µM and 0.1 µM, respectively.

In the case of `Cc1cc(-n2ncc(C(=O)N3CCC(C(F)(F)F)CC3)c2C)[nH]c(=O)c1` [Q-0439, 4-methyl-6-{5-methyl-4-[4-(trifluoromethyl)piperidine-1-carbonyl]-1H-pyrazol-1-yl}-1,2-dihydropyridin-2-one], the IC50 in assay [1] is 0.096 µM; in assay [2], 0.001 µM.

As for `Cc1cc(-n2cc(C(=O)N3CCC(C(F)(F)F)CC3)c(C)n2)[nH]c(=O)c1` [Q-0440, 4-methyl-6-{3-methyl-4-[4-(trifluoromethyL)piperidine-1-carbonyl]-1H-pyrazol-1-yl}-1,2-dihydropyridin-2-one], the results for the IC50 in assay [1] and in assay [2] were 1.4 µM and 0.009 µM, respectively.

For the compound `Cc1c(C(=O)N2CCC(C(F)(F)F)CC2)cnn1-c1nc2scnc2c(=O)[nH]1` [Q-0441], the 50% inhibitory concentration (IC50) in assay [1] is 31 µM; in assay [2] it was 0.1 µM.

`Cc1cc(=O)[nH]c(-n2cc(C(=O)N3CCC(C(F)(F)F)CC3)cn2)n1` [Q-0443]: the IC50 in assay [1] came out at 3.9 µM; in assay [2] it was 0.009 µM.

On to `Cc1cc(=O)[nH]c(-n2ncc(C(=O)N3CCC(C(F)(F)F)CC3)c2C(C)C)n1` [Q-0444], for which the IC50 worked out at 2.7 µM in assay [1] and 0.01 µM in assay [2].

Regarding `CC(C)c1c(C(=O)N2CCC(C(F)(F)F)CC2)cnn1-c1nc2c(c(=O)[nH]1)CCC2` [Q-0445], the IC50 came out at 0.9 µM in assay [1] and 0.01 µM in assay [2].

`Cc1c(C(=O)N2CCC(O)(c3ccccc3)CC2)cnn1-c1nc2c(c(=O)[nH]1)CCC2` [Q-0446]: the IC50 in assay [1] was found to be 0.096 µM; in assay [2], 0.007 µM.

As to `Cc1c(C(=O)N2CCC(C(C)(O)C(F)(F)F)CC2)cnn1-c1nc2c(c(=O)[nH]1)CCC2` (stereo not shown) [Q-0449], the figures for the IC50 in assay [1] and in assay [2] were 0.078 µM and 0.003 µM, respectively.

In the case of `Cc1c(C(=O)N2CCCC(C(F)(F)F)C2)cnn1-c1nc2c(c(=O)[nH]1)CCC2` (stereo not shown) [Q-0450], the IC50 in assay [1] was 0.3 µM; in assay [2], 0.005 µM.
